# Data published in patent publication US6569894B1, “Arylalkylbenzofuran derivatives as melatonergic agents” (Bristol-Myers Squibb Company, priority 2001, dated 2003).
# Experiments:
# [1] = target: T1, ML1a receptor (Homo sapiens, UniProt P48039); experiment: Melatonergic receptor binding activity, 2-[125I]-iodomelatonin, ML1a; conditions: membrane homogenates of NIH-3T3 cells, 37° C. for 1 hour
# T1 construct: expressed in transfected cells; pcDNA3)
# Description: (§1) Melatonergic Receptor Binding Activity
# (§2) (a) TME=50 mM Tris buffer containing 12.5 mM MgCl2, and 2 mM EDTA, pH 7.4 at 37° C., with concentrated HCl.
# (§3) (b) Wash buffer: 20 mM Tris base containing 2 mM MgCl2, pH 7.4 at room temperature.
# (§4) (c) 10^−4 M melatonin (10^−5 M final concentration).
# (§5) (d) 2-[^125I]-iodomelatonin, […] final concentration.
# 2. Membrane Homogenates: The melatonin ML1α receptor cDNA was subcloned into pcDNA3 and introduced into NIH-3T3 cells using Lipofectamine. Transformed NIH-3T3 cells resistant to geneticin (G-418) were isolated, and single colonies expressing high levels of 2-[^125I]-iodomelatonin binding were isolated. Cells are maintained in DMEM supplemented with 10% calf serum and G-418 (0.5 g/liter). Cells are grown to confluency in T-175 flasks, scraped using Hank's balanced salt solution, and frozen at −80° C. For preparing membrane homogenates, pellets are thawed on ice, and re-suspended in TME buffer in the presence of 10 μg/ml aprotinin and leupeptin, and 100 μM phenylmethylsulfonylfluoride. The cells were then homogenized using a dounce homogenizer, and centrifuged. The resulting pellet was re-suspended with dounce homogenizer in TME (supplemented with the above protease inhibitors) and frozen. On the day of assay, a small aliquot was thawed on ice and re-suspended in the ice cold TME (1:50-1:100 v/v) and held on ice until assayed.
# (§6) 3. Incubation: 37° C. for 1 hour. Reaction is terminated by filtration. Filters were washed 3 times.
# (§7) The compounds of the present invention have affinity for receptors of the endogenous pineal hormone, melatonin, as determined in a receptor binding assays described above in Tables I to V for the ML1a and ML1b (human) receptors. Melatonin is involved in the regulation of a variety of biological rhythms and exerts its biological effects via interaction with specific receptors. There is evidence that administration of melatonin agonists are of clinical utility in the treatment of various conditions regulated by melatonin activity. Such conditions include depression, jet-lag, work-shift syndrome, sleep disorders, glaucoma, some disorders associated with reproduction, cancer benign prostatic hyperplasia, immune disorders and neuroendocrine disorders.
# [2] = target: T2, ML1b receptor (Homo sapiens, UniProt P49286); experiment: Melatonergic receptor binding activity, 2-[125I]-iodomelatonin, ML1b; conditions: 37° C. for 1 hour
# T2 construct: expressed in transfected cells
# T2 sequence (P49286 1-362): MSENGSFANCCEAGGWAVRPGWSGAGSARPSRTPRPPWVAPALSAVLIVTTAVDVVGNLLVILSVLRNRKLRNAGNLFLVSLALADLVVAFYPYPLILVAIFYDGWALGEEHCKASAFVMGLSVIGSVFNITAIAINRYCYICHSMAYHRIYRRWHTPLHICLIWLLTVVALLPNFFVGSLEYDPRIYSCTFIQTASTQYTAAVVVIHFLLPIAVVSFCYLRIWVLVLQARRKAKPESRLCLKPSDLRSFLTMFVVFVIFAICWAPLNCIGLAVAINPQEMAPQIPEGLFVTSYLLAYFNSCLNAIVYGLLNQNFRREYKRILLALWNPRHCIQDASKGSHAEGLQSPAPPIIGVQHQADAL
# Description: as §1, §2, §3, §4, §5, §6, §7
# T1 sequence (P48039 whole entry): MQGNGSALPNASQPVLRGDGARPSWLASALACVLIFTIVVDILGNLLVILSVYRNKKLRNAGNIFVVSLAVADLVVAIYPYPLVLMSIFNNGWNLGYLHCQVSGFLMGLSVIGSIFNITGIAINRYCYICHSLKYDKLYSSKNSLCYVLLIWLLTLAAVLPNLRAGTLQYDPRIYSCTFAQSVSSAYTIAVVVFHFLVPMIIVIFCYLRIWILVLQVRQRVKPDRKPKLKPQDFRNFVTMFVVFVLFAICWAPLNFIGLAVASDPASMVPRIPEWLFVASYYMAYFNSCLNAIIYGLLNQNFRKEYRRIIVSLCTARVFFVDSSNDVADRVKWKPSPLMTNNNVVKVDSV
SMILES,IC50 ([1]; Table IV) [nM],IC50 ([2]; Table IV) [nM],also measured
"CCCC(=O)NC[C@H]1C[C@@H]1c1cccc2oc(CCCCc3ccccc3)cc12 (racemic) [Example 32, N-({(1R,2R)-2-[2-(4-Phenylbutyl)benzo[b]furan-4-yl]-cyclopropyl}methyl)butanamide]",10 to 250,10 to 250,–
"CC(=O)NC[C@H]1C[C@@H]1c1cccc2oc(CCCCc3ccccc3)cc12 (single isomer, unassigned) [Example 30]",10 to 250,> 250,–
"CCC(=O)NCCCc1cccc2c1C[C@H](CCCCc1ccccc1)O2 (stereo in doubt) [Example 2, N-[3-[2-(4-Phenylbutyl)-2,3-dihydrobenzofuran-4-yl]propyl]propionamide]",–,–,IC50 ([1]; Table I): < 10 nM; IC50 ([2]; Table I): 10 to 250 nM
"CC(C)C(=O)NCCCc1cccc2c1C[C@H](CCCCc1ccccc1)O2 (stereo in doubt) [Example 4, N-[3-[2-(4-Phenylbutyl)-2,3-dihydrobenzofuran-4-yl]propyl]-2-methylpropionamide]",–,–,IC50 ([1]; Table I): < 10 nM; IC50 ([2]; Table I): 10 to 250 nM
"CC(=O)NC[C@@H]1C[C@H]1c1cccc2oc(CCCCc3ccc(F)cc3)cc12 (stereo in doubt) [Example 36, N-[((1R,2R)-2-{2-[4-(4-Fluorophenyl)butyl]benzo[b]furan-4-yl}-cyclopropyl)methyl]acetamide]",< 10,10 to 250,–
"CCC(=O)NC[C@@H]1C[C@H]1c1cccc2oc(CCCCc3ccc(F)cc3)cc12 (stereo in doubt) [Example 37, N-[((1R,2R)-2-{2-[4-(4-Fluorophenyl)butyl]benzo[b]furan-4-yl}-cyclopropyl)methyl]propanamide]",< 10,10 to 250,–
"CC(C)C(=O)NC[C@@H]1C[C@H]1c1cccc2oc(CCCCc3ccc(F)cc3)cc12 (stereo in doubt) [Example 39, N-[((1R,2R)-2-{2-[4-(4-Fluorophenyl)butyl]benzo[b]furan-4-yl}-cyclopropyl)methyl]-2-methylpropanamide]",10 to 250,10 to 250,–
"CCCC(=O)NCCCc1cccc2c1C[C@H](CCCCc1ccccc1)O2 [Example 3, N-[3-[2-(4-Phenylbutyl)-2,3-dihydrobenzofuran-4-yl]propyl]butyramide]",–,–,IC50 ([1]; Table I): < 10 nM; IC50 ([2]; Table I): 10 to 250 nM
"CC(=O)NCCCc1cccc2oc(CCCCc3ccccc3)cc12 [Example 9, N-[3-[2-(4-Phenylbutyl)benzofuran-4-yl]propyl]acetamide]",–,–,IC50 ([1]; Table II): 10 to 250 nM; IC50 ([2]; Table II): 10 to 250 nM
"CCC(=O)NCCCc1cccc2oc(CCCCc3ccccc3)cc12 [Example 10, N-[3-[2-(4-Phenylbutyl)benzofuran-4-yl]propyl]propionamide]",–,–,IC50 ([1]; Table II): < 10 nM; IC50 ([2]; Table II): 10 to 250 nM
"CCCC(=O)NCCCc1cccc2oc(CCCCc3ccccc3)cc12 [Example 11, N-[3-[2-(4-Phenylbutyl)benzofuran-4-yl]propyl]butyramide]",–,–,IC50 ([1]; Table II): 10 to 250 nM; IC50 ([2]; Table II): 10 to 250 nM
"CC(C)C(=O)NCCCc1cccc2oc(CCCCc3ccccc3)cc12 [Example 12, N-[3-[2-(4-Phenylbutyl)benzofuran-4-yl]propyl]-2-methyl Propionamide]",–,–,IC50 ([1]; Table II): < 10 nM; IC50 ([2]; Table II): 10 to 250 nM
"O=C(NCCCc1cccc2oc(CCCCc3ccc(C(F)(F)F)cc3)cc12)C1CC1 [Example 13, N-[3-[2-[4-(4-Trifluoromethylphenyl)butyl]benzofuran-4-yl]propyl]-cyclopropane Carboxamide]",–,–,IC50 ([1]; Table III): > 250 nM; IC50 ([2]; Table III): > 250 nM
"CCNC(=O)NCCCc1cccc2oc(CCCCc3ccc(C(F)(F)F)cc3)cc12 [Example 14, N-[3-[2-[4-(4-Trifluoromethylphenyl)butyl]benzofuran-4-yl]propyl]-N′-ethyl Urea]",–,–,IC50 ([1]; Table III): 10 to 250 nM; IC50 ([2]; Table III): > 250 nM
"CC(=O)NCCCc1cccc2oc(CCCCc3ccc(C(F)(F)F)cc3)cc12 [Example 15, N-[3-[2-[4-(4-Trifluoromethylphenyl)butyl]benzofuran-4-yl]propyl]-acetamide]",–,–,IC50 ([1]; Table III): 10 to 250 nM; IC50 ([2]; Table III): > 250 nM
"CCC(=O)NCCCc1cccc2oc(CCCCc3ccc(C(F)(F)F)cc3)cc12 [Example 16, N-[3-[2-[4-(4-Trifluoromethylphenyl)butyl]benzofuran-4-yl]propyl]-propionamide]",–,–,IC50 ([1]; Table III): 10 to 250 nM; IC50 ([2]; Table III): 10 to 250 nM
"CCCC(=O)NCCCc1cccc2oc(CCCCc3ccc(C(F)(F)F)cc3)cc12 [Example 17, N-[3-[2-[4-(4-Trifluoromethylphenyl)butyl]benzofuran-4-yl]propyl]-butyramide]",–,–,IC50 ([1]; Table III): 10 to 250 nM; IC50 ([2]; Table III): 10 to 250 nM
"CC(C)C(=O)NCCCc1cccc2oc(CCCCc3ccc(C(F)(F)F)cc3)cc12 [Example 18, N-[3-[2-[4-(4-Trifluoromethylphenyl)butyl]benzofuran-4-yl]propyl]-isobutyramide]",–,–,IC50 ([1]; Table III): 10 to 250 nM; IC50 ([2]; Table III): > 250 nM

# Now from value to compound, other results behind:
IC50 ([1]; Table IV) [nM],IC50 ([2]; Table IV) [nM],SMILES,also measured
< 10,10 to 250,"CC(=O)NC[C@H]1C[C@@H]1c1cccc2oc(CCCCc3ccccc3)cc12 (racemic) [Example 28, N-({(1R,2R)-2-[2-(4-Phenylbutyl)benzo[b]furan-4-yl]-cyclopropyl}methyl)acetamide]",–
< 10,< 10,"CCC(=O)NC[C@H]1C[C@@H]1c1cccc2oc(CCCCc3ccccc3)cc12 (racemic) [Example 31, N-({(1R,2R)-2-[2-(4-Phenylbutyl)benzo[b]furan-4-yl]-cyclopropyl}methyl)propanamide]",–
10 to 250,10 to 250,"CC(C)C(=O)NC[C@H]1C[C@@H]1c1cccc2oc(CCCCc3ccccc3)cc12 (racemic) [Example 33, N-({(1R,2R)-2-[2-(4-Phenylbutyl)benzo[b]furan-4-yl]-cyclopropyl}methyl)-2-methylpropanamide]",–
10 to 250,10 to 250,"O=C(NC[C@H]1C[C@@H]1c1cccc2oc(CCCCc3ccccc3)cc12)C1CC1 (racemic) [Example 34, N-({(1R,2R)-2-[2-(4-Phenylbutyl)benzo[b]furan-4-yl]-cyclopropyl}methyl)cyclopropylcarboxamide]",–
< 10,10 to 250,"CC(=O)NC[C@H]1C[C@@H]1c1cccc2oc(CCCCc3ccccc3)cc12 (single isomer, unassigned) [Example 29]",–
10 to 250,10 to 250,"CCNC(=O)NC[C@@H]1C[C@H]1c1cccc2oc(CCCCc3ccccc3)cc12 (stereo in doubt) [Example 35, N-({(1R,2R)-2-[2-(4-Phenylbutyl)benzo[b]furan-4-yl]-cyclopropyl}methyl)(ethylamino)carboxamide]",–
10 to 250,10 to 250,"CCCC(=O)NC[C@@H]1C[C@H]1c1cccc2oc(CCCCc3ccc(F)cc3)cc12 (stereo in doubt) [Example 38, N-[((1R,2R)-2-{2-[4-(4-Fluorophenyl)butyl]benzo[b]furan-4-yl}-cyclopropyl)methyl]butanamide]",–
10 to 250,10 to 250,"O=C(NC[C@@H]1C[C@H]1c1cccc2oc(CCCCc3ccc(F)cc3)cc12)C1CC1 (stereo in doubt) [Example 40, N-[((1R,2R)-2-{2-[4-(4-Fluorophenyl)butyl]benzo[b]furan-4-yl}-cyclopropyl)methyl]cyclopropylcarboxamide]",–
10 to 250,> 250,"CCNC(=O)NC[C@H]1C[C@@H]1c1cccc2oc(CCCCc3ccc(F)cc3)cc12 [Example 41, N-[((1R,2R)-2-{2-[4-(4-Fluorophenyl)butyl]benzo[b]furan-4-yl-}-cyclopropyl)methyl](ethylamino)carboxamide]",–
